According to patent US20260184702A1, “SYNTHESIS, PHARMACOLOGY AND USE OF NEW WATER-SOLUBLE AND SELECTIVE FMS-LIKE TYROSINE KINASE3 (FLT3) INHIBITORS” (Universität Regensburg, priority 2022, published 2026):
pIC50: −log10 of the molar value. In brackets after ≈: the same amount, converted by molar mass. Counter-ions that a name gives are not always drawn. Like-named read-outs stand apart in the source and are kept apart here.

Assays:
[1] = system: subcutaneous MV4-11 CDX model; assay: In vivo efficacy study in subcutaneous MV4-11 CDX model in NOD/SCID mice; conditions: 50 mg/kg po daily 5 days
[2] = Solubility test by UV-Vis spectroscopy of saturated solutions; type: physicochemical; conditions: saturated solution; for solubility: thermodynamic from solid
Procedure: All UV-Vis measurements were carried out with an Agilent Cary 60 UV-Vis 2.00 between 800-200 nm. The absorbance was measured with a scan rate of 300.0 nm/min, a data interval of 0.50 nm and an UV-Vis Average Time of 0.10 s. For all measurements a cuvette with 10 mm light path was used. A calibration curve was plotted from several different concentrations and the solubility of the respective compound was determined by measuring the absorbance of a diluted saturated solution. As a blank curve a mixture of ultrapure water and ethanol in a ratio of 1:1 or 5:95 was recorded. For the calibration curve a 100 μM or a 10 μM solution of the compound in an ultrapure water:ethanol (1:1) or (5:95)-mixture was prepared and diluted to obtain at least 6 concentrations. […] The supernatant was taken using a syringe and filtered through a syringe filter (RC Membrane). The saturated solution was diluted with ultrapure water and ethanol to obtain an appropriate concentration in a water:ethanol (1:1) or (5:95)-mixture. The long wave absorbance maximum was used for determination of the solubility (mean values, determination in triplicate). […] By plotting the concentration of the solution against the absorbance values at the previously determined wavelength maximum a calibration curve was obtained (FIG. 1B).

human FLT3-ITD = biological target: T1, human FLT3-ITD (Homo sapiens, UniProt P36888); assay: Enzymatic kinase assay FLT3 (ITD), 10-dose IC50 mode (Reaction Biology); type: biochemical
T1 sequence (P36888 1-993): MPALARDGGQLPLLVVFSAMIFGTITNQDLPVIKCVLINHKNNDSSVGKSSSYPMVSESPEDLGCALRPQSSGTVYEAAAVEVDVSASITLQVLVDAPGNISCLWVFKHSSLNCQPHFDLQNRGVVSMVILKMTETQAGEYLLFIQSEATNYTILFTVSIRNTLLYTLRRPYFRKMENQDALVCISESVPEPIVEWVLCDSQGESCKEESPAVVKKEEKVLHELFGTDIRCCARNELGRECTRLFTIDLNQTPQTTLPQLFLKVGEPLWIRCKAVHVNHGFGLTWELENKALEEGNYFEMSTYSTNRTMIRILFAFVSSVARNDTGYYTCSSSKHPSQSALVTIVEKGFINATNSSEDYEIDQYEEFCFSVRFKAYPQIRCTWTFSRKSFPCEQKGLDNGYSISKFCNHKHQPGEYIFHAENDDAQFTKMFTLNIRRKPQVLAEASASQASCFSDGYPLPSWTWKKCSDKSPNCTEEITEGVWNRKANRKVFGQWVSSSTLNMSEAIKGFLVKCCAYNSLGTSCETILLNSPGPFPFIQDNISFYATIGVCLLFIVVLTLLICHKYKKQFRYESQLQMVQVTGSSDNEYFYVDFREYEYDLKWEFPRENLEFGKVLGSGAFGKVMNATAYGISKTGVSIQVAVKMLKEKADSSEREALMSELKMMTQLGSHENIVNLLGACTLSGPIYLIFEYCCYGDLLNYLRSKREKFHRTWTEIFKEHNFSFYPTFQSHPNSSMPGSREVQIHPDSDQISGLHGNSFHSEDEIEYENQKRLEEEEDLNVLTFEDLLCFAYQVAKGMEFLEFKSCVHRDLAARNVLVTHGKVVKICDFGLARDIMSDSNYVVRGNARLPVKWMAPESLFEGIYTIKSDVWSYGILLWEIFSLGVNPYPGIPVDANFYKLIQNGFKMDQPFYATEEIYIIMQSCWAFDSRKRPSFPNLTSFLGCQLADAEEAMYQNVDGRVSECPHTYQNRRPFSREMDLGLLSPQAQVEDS

[3] = Solubility test by UV-Vis spectroscopy of saturated solutions; type: physicochemical; conditions: solvent DMSO
[4] = ethanol, 2,2,2-trifluoroacetate
[5] = read-out: IC50 FLT3 (ITD); 10 μM ATP
[6] = ethanol, organic solvent or mixture, ethanol, read-out: Solubility Ethanol
[7] = ultrapure water, water, ultrapure water, read-out: Solubility Water
[8] = 10 μM ATP; read-out: IC50 FLT3 (ITD)

For `CO[C@@H]1[C@H](N(C)C(=O)c2ccccc2)C[C@H]2O[C@]1(C)n1c3ccccc3c3c4c(c5c6ccccc6n2c5c31)C(=O)NC4` [Midostaurin, reference compound], the “first death(s) (day of study)” value [1] was 520000 s, the “second death (day of study)” value [1] was 9 days and the “number of living subjects, day of study 5” value ([1]; 5 mice) was 5. For the same compound, the “number of living subjects, day of study 6” value ([1]; 5 mice) was 4, the “number of living subjects, day of study 8” value ([1]; 5 mice) was 4 and the “number of living subjects, day of study 13” value ([1]; 5 mice) was 3. For the same compound, the “number of living subjects, day of study 26” value ([1]; 5 mice) was 3 and the “number of living subjects, day of study 36” value ([1]; 5 mice) was 0.
With `CC(C)(C)c1cc(NC(=O)Nc2ccc3oc(C(=O)c4cc5c(CN6CCCC6)c(O)ccc5[nH]4)cc3c2)no1` [Compound 32b, 1-(5-(tert-Butyl)isoxazol-3-yl)-3-(2-(5-hydroxy-4-(pyrrolidin-1-ylmethyl)-1H-indole-2-carbonyl)benzofuran-5-yl)urea 2,2,2-trifluoroacetate] the “Solubility Ethanol” value [2, 4] was 2400 µg/mL (≈ 4430 µM).
Compound `CC(C)(C)c1cc(NC(=O)Nc2ccc3oc(C(=O)c4cc5c(CN6CCCC6)c(OC(=O)N6CCC(N7CCCCC7)CC6)ccc5[nH]4)cc3c2)no1` [Compound 40a, 2-(5-(3-(5-(tert-Butyl)isoxazol-3-yl)ureido)benzofuran-2-carbonyl)-4-(pyrrolidin-1-ylmethyl)-1H-indol-5-yl [1,4′-bipiperidine]-1′-carboxylate] has a pIC50 (human FLT3-ITD; [5]) of 8.94, a solubility [2, 6] of 1240 µg/mL (≈ 1690 µM) and a solubility [2, 7] of under 100 µg/mL.
Work on `CN(C)Cc1c(O)ccc2[nH]c(C(=O)c3cc4cc(NC(=O)Nc5cc(C(C)(C)C)on5)ccc4o3)cc12` [Compound 34a, 1-(5-tert-Butylisoxazol-3-yl)-3-(2-(4-((dimethylamino)methyl)-5-hydroxy-1H-indole-2-carbonyl)benzofuran-5-yl)urea] yielded a pIC50 (human FLT3-ITD; [8]) of 8.82.
In the case of `CC(C)(C)c1cc(NC(=O)Nc2ccc3oc(C(=O)c4cc5c(CN6CCCCC6)c(OC(=O)N6CCC(N7CCCCC7)CC6)ccc5[nH]4)cc3c2)no1` [Compound 39a, 2-(5-(3-(5-(tert-Butyl)isoxazol-3-yl)ureido)benzofuran-2-carbonyl)-4-(piperidin-1-ylmethyl)-1H-indol-5-yl [1,4′-bipiperidine]-1′-carboxylate], the pIC50 (human FLT3-ITD; [5]) was 8.94, the solubility [2, 6] was 1590 µg/mL (≈ 2120 µM) and the solubility [2, 7] was under 100 µg/mL.
Work on `CC(C)(C)c1cc(NC(=O)Nc2ccc3oc(C(=O)c4cc5c(CN6CCOCC6)c(O)ccc5[nH]4)cc3c2)no1` [Compound 30c, 1-(5-(tert-Butyl)isoxazol-3-yl)-3-(2-(5-hydroxy-4-(morpholinomethyl)-1H-indole-2-carbonyl)benzofuran-5-yl)urea hydrochloride] yielded a pIC50 (human FLT3-ITD; [8]) of 8.70.
With `CC(C)(C)c1cc(NC(=O)Nc2ccc3oc(C(=O)c4cc5c(CN6CCCCC6)c(O)ccc5[nH]4)cc3c2)no1` [Compound 31a, 1-(5-(tert-Butyl)isoxazol-3-yl)-3-(2-(5-hydroxy-4-(piperidin-1-ylmethyl)-1H-indole-2-carbonyl)benzofuran-5-yl)urea] the “Solubility DMSO” value [3] was “Soluble”, the solubility [2, 6] was 2200 µg/mL (≈ 3960 µM) and the solubility [2, 7] was under 100 µg/mL.
In the case of `CC(C)(C)c1cc(NC(=O)Nc2ccc3oc(C(=O)c4cc5c(CN6CCCCC6)c(O)ccc5[nH]4)cc3c2)no1` [Compound 31b, 1-(5-(tert-Butyl)isoxazol-3-yl)-3-(2-(5-hydroxy-4-(piperidin-1-ylmethyl)-1H-indole-2-carbonyl)benzofuran-5-yl)urea 2,2,2-trifluoroacetate], the “Solubility Ethanol” value [2, 4] was 1890 µg/mL (≈ 3400 µM).
For `CC(C)(C)c1cc(NC(=O)Nc2ccc3oc(C(=O)c4cc5c(CN6CCCC6)c(O)ccc5[nH]4)cc3c2)no1` [Compound 32a, 1-(5-(tert-Butyl)isoxazol-3-yl)-3-(2-(5-hydroxy-4-(pyrrolidin-1-ylmethyl)-1H-indole-2-carbonyl)benzofuran-5-yl)urea], the “Solubility DMSO” value [3] was “Soluble”, the “Solubility Ethanol” value ([2]; ethanol) was 910 µg/mL (≈ 1680 µM) and the solubility [2, 7] was under 100 µg/mL.
`CC(C)(C)c1cc(NC(=O)Nc2ccc3oc(C(=O)c4cc5c(CN6CCOCC6)c(OC(=O)N6CCC(N7CCCCC7)CC6)ccc5[nH]4)cc3c2)no1` [Compound 38a, 2-(5-(3-(5-(tert-Butyl)isoxazol-3-yl)ureido)benzofuran-2-carbonyl)-4-(morpholinomethyl)-1H-indol-5-yl[1,4′-bipiperidine]-1′-carboxylate] gave a solubility [2, 6] of 890 µg/mL (≈ 1180 µM) and a solubility [2, 7] of under 100 µg/mL.
Compound `CN(C)Cc1c(OC(=O)N2CCC(N3CCCCC3)CC2)ccc2[nH]c(C(=O)c3cc4cc(NC(=O)Nc5cc(C(C)(C)C)on5)ccc4o3)cc12` [Compound 42a, 2-(5-(3-(5-(tert-Butyl)isoxazol-3-yl)ureido)benzofuran-2-carbonyl)-4-((dimethylamino)methyl)-1H-indol-5-yl [1,4′-bipiperidine]-1′-carboxylate] has a pIC50 (human FLT3-ITD; [5]) of 8.91.
Compound `CC(C)(C)c1cc(NC(=O)Nc2ccc3oc(C(=O)c4cc5c(CN6CCOCC6)c(OC(=O)N6CCC(N7CCCCC7)CC6)ccc5[nH]4)cc3c2)no1` [Compound 38c, 2-(5-(3-(5-(tert-Butyl)isoxazol-3-yl)ureido)benzofuran-2-carbonyl)-4-(morpholinomethyl)-1H-indol-5-yl [1,4′-bipiperidine]-1′-carboxylate Dihydrochloride] has a pIC50 (human FLT3-ITD; read-out: IC50 FLT3 (ITD); 10 μM ATP; Dihydrochloride) of 8.82.
For `CN1CCN(Cc2c(OC(=O)N3CCC(N4CCCCC4)CC3)ccc3[nH]c(C(=O)c4cc5cc(NC(=O)Nc6cc(C(C)(C)C)on6)ccc5o4)cc23)CC1` [Compound 41c, 2-(5-(3-(5-(tert-Butyl)isoxazol-3-yl)ureido)benzofuran-2-carbonyl)-4-((4-methylpiperazin-1-yl)methyl)-1H-indol-5-yl [1,4′-bipiperidine]-1′-carboxylate Trihydrochloride], the pIC50 (human FLT3-ITD; read-out: IC50 FLT3 (ITD); 10 μM ATP; Trihydrochloride) was 9.30.
In the case of `CC(C)(C)OC(=O)N1CCN(Cc2c(O)ccc3[nH]c(C(=O)c4cc5cc(NC(=O)Nc6cc(C(C)(C)C)on6)ccc5o4)cc23)CC1` [Compound 54a], the “Solubility DMSO” value [3] was “Soluble”, the solubility [2, 6] was 900 µg/mL (≈ 1370 µM) and the solubility [2, 7] was under 100 µg/mL.
For `CCN1CCN(Cc2c(O)ccc3[nH]c(C(=O)c4cc5cc(NC(=O)Nc6cc(C(C)(C)C)on6)ccc5o4)cc23)CC1` [Compound 69b], the “Solubility DMSO” value [3] was “Soluble”, the “Solubility Ethanol” value ([2]; ethanol) was 4410 µg/mL (≈ 7540 µM) and the “Solubility Water” value ([2]; ultrapure water) was 100 µg/mL (≈ 171 µM).
For `CC(C)N1CCN(Cc2c(O)ccc3[nH]c(C(=O)c4cc5cc(NC(=O)Nc6cc(C(C)(C)C)on6)ccc5o4)cc23)CC1` [Compound 70b, 1-(5-(tert-Butyl)isoxazol-3-yl)-3-(2-(5-hydroxy-4-((4-isopropylpiperazin-1-yl)methyl)-1H-indole-2-carbonyl)benzofuran-5-yl)urea bis(2,2,2-trifluoroacetate)], the “Solubility Ethanol” value ([2]; ethanol, bis(2,2,2-trifluoroacetate)) was 1820 µg/mL (≈ 3040 µM) and the “Solubility Water” value ([2]; ultrapure water, bis(2,2,2-trifluoroacetate)) was 370 µg/mL (≈ 618 µM).
For `CC(C)(C)c1cc(NC(=O)Nc2ccc3oc(C(=O)c4cc5c(CN6CCOCC6)c(O)ccc5[nH]4)cc3c2)no1` [Compound 30b, 1-(5-(tert-Butyl)isoxazol-3-yl)-3-(2-(5-hydroxy-4-(morpholinomethyl)-1H-indole-2-carbonyl)benzofuran-5-yl)urea 2,2,2-trifluoroacetate], the “Solubility DMSO” value [3] was “Soluble”, the solubility [2, 6] was 2570 µg/mL (≈ 4610 µM) and the solubility [2, 7] was 140 µg/mL (≈ 251 µM).
